Assay results from PMC3676450 (Journal of medicinal chemistry, 2013).

How the values were obtained:
[1] = biological target: T1, hM5 mAcChR (Homo sapiens, UniProt P08912); experiment: [3H]NMS binding to membranes from CHO-K1 cells expressing hM5
T1 sequence (P08912 1-532): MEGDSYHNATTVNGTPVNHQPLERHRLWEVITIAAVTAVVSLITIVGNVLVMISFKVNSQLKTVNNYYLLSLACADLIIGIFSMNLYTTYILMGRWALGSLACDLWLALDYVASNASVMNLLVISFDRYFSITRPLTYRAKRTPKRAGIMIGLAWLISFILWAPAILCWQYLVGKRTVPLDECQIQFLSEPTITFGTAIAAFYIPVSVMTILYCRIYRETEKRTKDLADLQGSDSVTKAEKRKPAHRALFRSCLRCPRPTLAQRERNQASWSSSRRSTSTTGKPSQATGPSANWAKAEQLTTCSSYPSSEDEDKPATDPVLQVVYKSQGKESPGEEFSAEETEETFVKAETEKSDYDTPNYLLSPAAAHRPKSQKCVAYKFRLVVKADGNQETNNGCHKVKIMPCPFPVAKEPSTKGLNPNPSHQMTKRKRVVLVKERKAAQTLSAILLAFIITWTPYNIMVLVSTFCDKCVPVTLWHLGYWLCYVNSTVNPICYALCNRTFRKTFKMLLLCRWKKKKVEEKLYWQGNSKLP

[2] = biological target: T2, hM1 mAcChR (Homo sapiens, UniProt P11229); experiment: [3H]N-methylscopolamine; assay type: binding
T2 sequence (P11229 1-460): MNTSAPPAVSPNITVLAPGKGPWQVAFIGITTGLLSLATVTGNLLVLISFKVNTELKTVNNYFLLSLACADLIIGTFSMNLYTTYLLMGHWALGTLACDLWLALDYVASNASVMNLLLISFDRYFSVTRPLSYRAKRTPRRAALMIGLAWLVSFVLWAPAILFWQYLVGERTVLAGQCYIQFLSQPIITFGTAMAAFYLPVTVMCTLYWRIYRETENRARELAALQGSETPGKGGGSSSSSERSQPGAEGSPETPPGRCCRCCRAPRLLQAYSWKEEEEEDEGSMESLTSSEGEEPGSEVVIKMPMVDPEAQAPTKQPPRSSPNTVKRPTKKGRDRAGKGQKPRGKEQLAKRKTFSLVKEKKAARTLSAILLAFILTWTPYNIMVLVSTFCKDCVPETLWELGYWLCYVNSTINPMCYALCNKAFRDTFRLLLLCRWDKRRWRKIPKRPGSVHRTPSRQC

SMILES | M2/M5 [1] | M3/M5 [1] | M4/M5 [1] | binding affinity at M5 receptor (in words) [1] | binding affinity at M1 receptor (in words) [2] | M1/M5 [1] | other results
COc1ccc(CCOC(=O)C2=C(c3cccc(F)c3)CCN(C)C2)cc1OC [Compound 66] | >100,000 (>30) | >100,000 (>30) | >100,000 (>30) | – | – | – | –
CCCN1CCC(c2ccccc2)=C(C(=O)OCCc2ccc(OC)cc2)C1 [Compound 43] | – | – | – | eliminated affinity | eliminated affinity | – | –
COc1ccc(CCOC(=O)C2=C(c3ccccc3)CCN(C)C2)cc1 [Compound 42] | – | – | – | – | – | – | increase in binding affinity at M5 relative to compound 8 [1]: 14 fold; increase in binding affinity at M1 relative to compound 8 [2]: 8 fold
CCN1CCC(c2ccccc2)=C(C(=O)OCCc2ccc3c(c2)CCO3)C1 [Compound 28] | >100,000 (>435) | 31,100 (135) | 10,500 (46) | – | – | 1,390 (6.0) | –
CN1CCC(c2ccccc2)=C(C(=O)OCCc2cccc3ccccc23)C1 [Compound 57] | >100,000 (>20) | >100,000 (>20) | >100,000 (>20) | – | – | 24,400 (4.8) | –
COc1ccc(CCOC(=O)C2=C(c3ccccc3)CCN(Cc3ccc(OC)cc3)C2)cc1 [Compound 40] | – | – | – | eliminated affinity | eliminated affinity | – | –
CN1CC=C(c2ccccc2C(=O)OCCc2ccc3c(c2)CCO3)CC1 [Compound 89] | – | – | – | complete loss of binding affinity | complete loss of binding affinity | – | –
CN1CCC(c2ccccc2)=C(C(=O)OCCc2ccc3c(c2)CCO3)C1 [Compound 45] | 1,170 (20) | 2,840 (47) | 1,890 (32) | – | – | 290 (4.8) | –
CCCCN1CCC(c2ccccc2)=C(C(=O)OCCc2ccc(OC)cc2)C1 [Compound 44] | – | – | – | eliminated affinity | eliminated affinity | – | –
CCN1CCC(c2ccccc2)=C(C(=O)OCCc2ccc(S(C)(=O)=O)cc2)C1 [Compound 27] | – | – | – | little affinity | little affinity | – | –
CCN1CCC(c2ccccc2)=C(C(=O)OCCc2cccc(OC)c2)C1 [Compound 18] | – | – | – | – | – | – | increase in binding affinity at M5 relative to compound 8 [1]: 3 fold; increase in binding affinity at M5 relative to compound 17 [1]: 8 fold
CN1CCC(c2ccccc2F)=C(C(=O)OCCc2ccc3c(c2)CCO3)C1 [Compound 63] | 540 (0.7) | 4,890 (6.6) | 5,740 (7.8) | – | – | 5,270 (7.1) | –
